# Results: patent US9084770B2, “Modulation of insulin like growth factor I receptor expression in cancer” (Antisense Therapeutics, Ltd., priority 2008, dated 2015)
# Marks after values point to notes of the source that are not given here.
# Key:
# [1] = system: insulin receptor-B (IR-B); assay: Insulin receptor-B protein in transfected LNCaP and PC3 cells, immunoblot; assay type: cell-based, human; details: highest ATL1101 concentration tested for each cell line (LNCaP, PC3)
# Protocol: FIGS. 1B(i)-1B(ii) show sequence-specific and dose-dependent inhibition of IGF-IR protein by IGF-IR antisense oligonucleotide in LNCaP (FIG. 1B (i)) and PC-3 (FIG. […]) cells. […] Two days after the second transfection, whole cell detergent lysates were prepared and 30 μg of total protein was subjected to SDS-PAGE and immunoblotted for IGF-IRB subunit, IR-BB subunit and vinculin expression. Oligofectamine, oligofectamine treated cells only. In LNCaP cells, IGF-IR expression was >80% suppressed by 10 nM ATL1101 and was undetectable at 100 nM ATL1101. In PC3 cells, IGF-IR expression was suppressed ˜50% at 10 nM ATL1101, >80% at 50 nM ATL1101 and >90% at 200 nM. […] Vinculin expression is shown as a loading control.
# PC3 cells [2] = assay: PC3 viable cells and apoptosis after transfection plus Paclitaxel
# Protocol: PC3 cells cultured in vitro were transfected at concentrations of IGF-IR antisense oligonucleotide (ATL1101) or control oligodeoxynucleotide (ISIS 306064) ranging from 12.5 nM to 50 nM or oligofectamine control once per day on two sequential days. After the 2nd transfection, the PC3 cells were treated with concentrations of between 0.1 to 50 nM Paclitaxel. The number of viable cells remaining were determined 72 hours after Paclitaxel treatment.
# [3] = system: IGF-IRβ, p-AKT, p-ERK1/2, cleaved PARP; assay: Intracellular signaling in LNCaP and PC3 cells, immunoblot; assay type: cell-based, human; details: 100 nM
# Protocol: The suppression of intracellular signaling in IGF-IR antisense oligonucleotide-treated LNCaP (FIG. 3A) and PC3 (FIG. 3B) in vitro is shown in FIGS. 3A-3B. LNCaP or PC3 cells were transfected with 100 nM ATL1101 or control oligodeoxynucleotide (ISIS 306064) for two days. Cells were then cultured in FBS media for one day and in serum-free media for one day. Whole cell lysates (30 μg) were subjected to SDS-PAGE and immunoblotted to assess IGF-IRβ, p-AKT, total AKT, p-ERK1/2, total ERK1/2, cleaved PARP, and vinculin protein levels. Oligo, oligofectamine treated cells only.
# IGF-IR mRNA = details: other cell lines, dose-dependent and sequence specific; cited from earlier work
# PC3 cells [4] = assay: PC3 cell cycle and apoptosis, flow cytometry with propidium iodide; assay type: cell-based, human; details: PC3, FBS condition, 200 nM
# Protocol: Established methods were used to test the activity of IGF-IR antisense oligonucleotide on LNCaP and PC-3 cell growth (crystal violet assay) and apoptosis (FACS). Dose- and sequence-specific suppression of IGF-IR mRNA and protein expression in ATL1101-treated LNCaP and PC3 PC cell lines in vitro were observed by QT-PCR and western blotting. Effects of the IGF-IR antisense oligonucleotide on various putative targets, including IGF-IR and downstream targets were evaluated using western blotting.
# The Effect of IGF-IR silencing with IGF-IR antisense oligonucleotide (ATL1101) on LNCaP and PC3 cell apoptosis and cell cycle is shown in FIGS. 4A(i)-(ii), 4B, 4C(i)-(ii), and Table 2. Cells were transfected with indicated concentrations of ATL1101, control oligodeoxynucleotide or oligofectamine as in FIGS. 1A(i)-1B(ii). Two days after treatment, cell cycle analysis was determined by flow cytometry using propidium iodide staining. […] In FIGS. 4C(i)-(ii), LNCaP (FIG. 4C (i)) or PC-3 (FIG. 4C (ii)) cells were transfected with indicated concentration of ATL1101 or control oligodeoxynucleotide (ISIS 306064) for two days. Cells were then cultured in FBS media for one day and in serum-free media for one day. Whole cell lysates (30 μg) were subjected to SDS-PAGE and immunoblotted to assess Cyclin D1, Cyclin E, p-RB, total Rb, and p27 protein levels. Oligo, oligofectamine treated cells only.
# IGF-IRβ subunit protein = IGF-IRβ subunit protein in PC3 Ptx-R cells; assay type: cell-based, human; details: 10 to 200 nM, compared to oligofectamine transfection reagent
# From the text: The PC3 Ptx-R cells retain sensitivity to ATL1101-induced IGF-IR down regulation at the mRNA and protein level as shown in FIGS. 11A-C. […] ATL1101 and the control oligodeoxynucleotide ISIS 306064 had no effect on either of the alternative spliced isoform transcripts of the insulin receptor, IR-A, IR-B or IR-β protein or vinculin protein levels.
# Ptx-R PC3 cells = assay: Ptx-R PC3 viable cells after transfection with or without Paclitaxel; assay type: cell-based, human
# Protocol: The number of viable PC3 and PtxR PC3 cells was determined 72 hours after the second transfection.
# […] The number of viable cells remaining was determined 72 hours after the second transfection treatment. ATL1101 treatment enhances the Ptx-R sensitivity to Paclitaxel under standard culture conditions. For example, there was approximately 45% cell viability with 100 nM Paclitaxel and 25 nM control oligodeoxynucleotide whereas, only 25 nM Paclitaxel is needed in the presence of 25 nM ATL1101 to produce the same reduction in cell viability.
# PC3 tumors = assay: PC-3 xenograft, tumor volume (monotherapy); assay type: in vivo, mice; details: 15 mg/kg i.p.
# Protocol: One million PC-3 or LNCaP cells were injected subcutaneously in athymic mice. For LNCaP xenografts, when PSA values exceeded 50 ng/ml, mice were castrated and randomly selected for treatment with ATL1101 or control oligodeoxynucleotide (15 mg/kg) injected i.p. once daily for 7 days and 3 times per week thereafter. Blood samples were obtained from the tail vein of the mice once weekly to measure serum PSA by ELISA. For PC-3 xenografts, when tumors reached 100 mm^3, mice were randomly selected and treated with the same protocol as LNCaP.
# The effects of IGF-IR antisense oligonucleotide treatment in LNCaP and PC-3 tumors in vivo are show in FIGS. 5A-5C. LNCaP cells were inoculated s.c. and when PSA values exceeded 50 ng/ml, mice were castrated and randomly selected for treatment with ATL1101 or control oligodeoxynucleotide (15 mg/kg) injected i.p. once daily for 7 days and 3 times per week thereafter. Blood samples were obtained from the tail vein of the mice once weekly to measure serum PSA by ELISA. PC-3 cells were inoculated s.c. and when tumors reached 100 mm^3, mice were randomly selected for treatment with the same protocol as LNCaP. Each point represents the mean tumor volume in each group containing 10 mice; bars, SE. * differs from control oligodeoxynucleotide treatment group (p<0.05) by Student's t test.
# Ki67 = Ki67 immunohistochemistry in psoriatic skin biopsies after topical treatment; assay type: in vivo; details: topically applied
# Protocol: The present inventors assessed proliferation by Ki67 labeling in paraffin wax-embedded, formalin-fixed, 3 mm diameter, full-thickness psoriatic skin biopsies at the conclusion of the treatment phase of topically applied ATL1101. The tissue was analyzed to assess the effect of the antisense treatments on Ki67 expression using immunohistochemical analysis.
substance,measurement,setting,value
"cgaaggaaacaatactccga (CGAAGGAAACAATACTCCGA; 2'-MOE modified, pattern not given here) [ISIS 175317, 2′-MOE-modified IGF-IR antisense oligonucleotide, also known as ATL1101]",suppression of IR-B expression,[1],< 10%
same,fold higher Paclitaxel concentration (10 nM vs 1 nM) needed with 25 nM mismatch control for similar viability,PC3 cells [2]; 25 nM ATL1101 with 1 nM Paclitaxel,10 fold
same,amount of Paclitaxel required to induce tumor cell apoptosis,PC3 cells [2]; in combination with ATL1101,significantly reduced
same,IGF-IR expression,[3],undetectable
same,activation of AKT and ERK1/2,[3],suppressed
same,cleaved PARP production,[3],increased
same,inhibition of IGF-IR mRNA expression,IGF-IR mRNA,significantly inhibit
same,"% of total cells, G0/G1",PC3 cells [4],19.3%
same,"% of total cells, G2/M",PC3 cells [4],8.4%
same,"% of total cells, S",PC3 cells [4],9.8%
same,"% of total cells, Sub G0/G1",PC3 cells [4],62.5%
same,subG0/G1 + G0/G1:S + G2/M,PC3 cells [4],4.5**
same,IGF-IRβ subunit protein levels,IGF-IRβ subunit protein,specifically reduced
same,Paclitaxel concentration needed to produce the same reduction in cell viability (approximately 45% viability),Ptx-R PC3 cells; in the presence of 25 nM ATL1101,25 nM
same,sensitivity of viable cell number to ATL1101,"Ptx-R PC3 cells; up to 250 nM, 72 hours after second transfection, standard culture conditions",retain ATL1101 sensitivity
same,tumor volume compared to control oligodeoxynucleotide,PC3 tumors,significantly reduced
same,Ki67 by length (mm) and area (mm squared) vs. mismatch control,Ki67,Statistically significant reduction
